Results as given in paper PMC10571957, “αV-Integrin-Dependent Inhibition of Glioblastoma Cell Migration, Invasion and Vasculogenic Mimicry by the uPAcyclin Decapeptide” (Cancers, 2023).
Where “and” joins values, the source holds several entries; their conditions need not be identical. Identical values can stand only once.

How the values were obtained:
U87-MG cells = assay: Boyden chamber migration (chemotaxis), U87-MG; assay type: cell-based, human; conditions: for % of the basal: sheet all data, Average all expts; for % of basal (T-TEST list): sheet data scrambled
Experimental: (§1) The migration and invasion assays were performed using Boyden chambers and 8 µm pore size PVP-free filters coated with 50 µg/mL of collagen type VI (Sigma), as previously described. For the invasion assays, collagen-coated filters were further coated with 50 µg/mL Matrigel^TM (Sigma). Briefly, 11 × 10^4 U87-MG, 4 × 10^4 U251-MG, or 4 × 10^4 U138-MG/sample were pre-treated for 40 min at 37 °C with the indicated effectors. Then, the cells were allowed to migrate for 3 h or to invade for 5 h at 37 °C toward 5% FBS in DMEM/0.1% BSA. At the end of both assays, the cells on the lower filter surface were fixed, stained with haematoxylin, and counted under an optical microscope (Zeiss Axiophot, Carl Zeiss, Milan, Italy) at 20× magnification. The migration and invasion experiments were conducted in triplicate for U87-MG and in duplicate for U251-MG and U138-MG. The migrated or invaded cells were reported as percentage of basal migration or invasion in the presence of DMEM/0.1% BSA, taken as 100%, and analyzed as reported in Section 2.11.
(§2) Figure 3 Inhibition of U87-MG, U251-MG, and U138-MG GBM cellular migration by uPAcyclin. Quantitative analysis of U87-MG (A), U251-MG (B), and U138-MG (C) directional migration. A total of 11 × 10^4 U87-MG/sample or 4 × 10^4 U251-MG or U138-MG/sample were pre-treated for 40 min at 37 °C with uPAcyclin or S-peptide at the indicated concentrations, anti-αV polyclonal (anti-αV Pclonal) or monoclonal (anti-αV MoAb) antibody, or anti-GAPDH, and anti-α2 monoclonal antibody (anti-α2 MoAb), and then assayed in Boyden chambers at 37 °C, either for basal (BSA) or directional 5% FBS-dependent migration for 3 h at 37 °C. At the end of incubation, the filters were processed as described in Methods. Basal migration was taken as 100% and all values were calculated relative to that (* p-value < 0.05; ** p-value < 0.005; *** p-value < 0.001).

U251-MG cells = assay: Boyden chamber migration (chemotaxis), U251-MG; assay type: cell-based, human; conditions: for migrated cells n°/field / migration, % of basal / migration, % of basal, average 2 expts / migration, % of basal, average expt 1 / migration, % of basal, average expt 2 / migration, % of basal, T-test list: sheet data scrambled; for migrated cells n°/field / migration, % of basal: 5% FBS, 3 h; for migration, % of basal, average 2 expts: mean of 2 expts; for migration, % of basal, average expt 1: mean of expt 1; for migration, % of basal, average expt 2: mean of expt 2; for migration, % of basal, T-test list: single replicates
Experimental: as §1, §2

Substance: Ac-PS[EELKPEPK]-NH2 (sidechain bridge or staple) [S-uPAcyclin, scrambled control peptide]
- % of the basal (U87-MG cells; 10pM): 169%
- % of the basal (U87-MG cells; 1nM): 183%
- % of the basal (U87-MG cells; 100nM): 160%
- % of basal (T-TEST list) (U87-MG cells; 10 pM, T-TEST list value 1): 171
- % of basal (T-TEST list) (U87-MG cells; 10 pM, T-TEST list value 2): 152
- % of basal (T-TEST list) (U87-MG cells; 10 pM, T-TEST list value 3): 191
- % of basal (T-TEST list) (U87-MG cells; 10 pM, T-TEST list value 4): 162
- % of basal (T-TEST list) (U87-MG cells; 1 nM, T-TEST list value 1): 171
- % of basal (T-TEST list) (U87-MG cells; 1 nM, T-TEST list value 2): 190
- % of basal (T-TEST list) (U87-MG cells; 1 nM, T-TEST list value 3): 191
- % of basal (T-TEST list) (U87-MG cells; 1 nM, T-TEST list value 4): 181
- % of basal (T-TEST list) (U87-MG cells; 100nM, T-TEST list value 2): 158
- % of basal (T-TEST list) (U87-MG cells; 100nM, T-TEST list value 3): 158
- % of basal (T-TEST list) (U87-MG cells; 100nM, T-TEST list value 4): 162
- effect on migration, in words (U87-MG cells; up to 100 nM, U87-MG (Figure 3A)): ineffective up to 100 nM
- migration, % of the basal, average all expts (U251-MG cells; 1 nM): 176%
- migrated cells n°/field (U251-MG cells; 1 nM, expt 1, duplicates): 28 cells n°/field and 26 cells n°/field
- migration, % of basal (U251-MG cells; 1 nM, expt 1, duplicates): 200% and 186%
- migrated cells n°/field (U251-MG cells; 1 nM, expt 2, duplicates): 32 cells n°/field and 38 cells n°/field
- migration, % of basal (U251-MG cells; 1 nM, expt 2, duplicates): 145% and 172%
- migration, % of basal, average 2 expts (U251-MG cells; 1 nM): 176.045%
- migration, % of basal, average expt 1 (U251-MG cells; 1 nM): 193%
- migration, % of basal, average expt 2 (U251-MG cells; 1 nM): 159.091%
- migration, % of basal, T-test list (U251-MG cells; 1 nM): 200 and 186 and 145 and 172
- migration, % of the basal, average all expts (U251-MG cells; 100 nM): 157%
- migrated cells n°/field (U251-MG cells; 100 nM, expt 1, duplicates): 23 cells n°/field and 20 cells n°/field
- migration, % of basal (U251-MG cells; 100 nM, expt 1, duplicates): 164% and 143%
- migrated cells n°/field (U251-MG cells; 100 nM, expt 2, duplicates): 35 cells n°/field and 36 cells n°/field
- migration, % of basal (U251-MG cells; 100 nM, expt 2, duplicates): 159% and 163%
- migration, % of basal, average 2 expts (U251-MG cells; 100 nM): 157.432%
- migration, % of basal, average expt 1 (U251-MG cells; 100 nM): 153.5%
- migration, % of basal, average expt 2 (U251-MG cells; 100 nM): 161.364%
- migration, % of basal, T-test list (U251-MG cells; 100 nM): 164 and 143 and 159
